In PubChem BioAssay AID1259411 (Chemical Carcinogenesis Research Information System (CCRIS), 2018):
Activity calls are given as the source filed them. How the calls were made is not given here.

System: rodent carcinogenicity bioassays, tumor incidence
Assay: CCRIS carcinogenicity studies
How it was run: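 NCI-built, expert-reviewed records of carcinogenicity and related test outcomes (mutagenicity, tumor promotion/inhibition) compiled from published and report sources, historical span 1985-2011, not updated.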

Question: For `CCN(Cc1cccc(S(=O)(=O)[O-])c1)c1ccc(C(=C2C=CC(=[N+](C)C)C=C2)c2ccc(N(CC)Cc3cccc(S(=O)(=O)O)c3)cc2)cc1`, which carcinogen call (Species: MOUSE, Strain/Sex: SWISS-WEBSTER/FEMALE, Route: DERMAL, Dose: 0, 1% IN 0.1 ML DISTILLED WATER 1/WK FOR 18 MO (STUDY DURATION: 18 MO)) is on record?
Answer: inactive; negative

Question: And the carcinogen call (Species: MOUSE, Strain/Sex: SWISS-WEBSTER/MALE, Route: DERMAL, Dose: 0, 1% IN 0.1 ML DISTILLED WATER 1/WK FOR 18 MO (STUDY DURATION: 18 MO))?
Answer: inactive; negative

Question: What about the carcinogen call (Species: RAT, Route: ORAL, Tumor Site: Type of Lesion: MAMMARY GLAND, INTEGUMENTARY SYSTEM (SKIN)) of the same compound?
Answer: active; positive

Question: What about the carcinogen call (Species: RAT, Route: SUBCUTANEOUS, Tumor Site: Type of Lesion: INJECTION SITE) of the same compound?
Answer: active; positive

Question: `COC(=O)N/N=C/c1c[n+]([O-])c2ccccc2[n+]1[O-]` was tested. Which carcinogen call (Species: RAT, Strain/Sex: WISTAR/FEMALE, Route: ORAL, Dose: 0, 50, 100, 250, 500 PPM IN DIET FOR 12 MO (STUDY DURATION: 12 MO), Dose: 0, 50, 100, 250, 500 PPM IN DIET FOR 12 MO (STUDY DURATION: 12 MO), Tumor Site: Type of Lesion: LIVER: HEPATOCELLULAR CARCINOMA) did it give?
Answer: active; positive

Question: What about the carcinogen call (Species: RAT, Strain/Sex: WISTAR/MALE, Route: ORAL, Dose: 0, 50, 100, 250, 500 PPM IN DIET FOR 12 MO (STUDY DURATION: 12 MO), Dose: 0, 50, 100, 250, 500 PPM IN DIET FOR 12 MO (STUDY DURATION: 12 MO), Tumor Site: Type of Lesion: LIVER: HEPATOCELLULAR CARCINOMA) of the same compound?
Answer: active; positive

Question: Which results are given for `CO[C@@H](Cc1ccc(OCCCOc2ccc(Oc3ccccc3)cc2)cc1)C(=O)O`?
Answer: carcinogen call (Species: Rat, Strain/Sex: F344/N / Female (60/Group), Route: Oral (gavage), Dose: 0, 0.1, 0.3, 1.0 mg/kg bw daily for 104 wk, study duration 104 wk, Dose: 0, 0.1, 0.3, 1.0 mg/kg bw daily for 104 wk, study duration 104 wk, Tumor Site: Type of Lesion: Bladder: carcinoma (0, 0, 2, 8), papilloma (0, 0, 0, 6)): active; positive. study primarily directed to urine characteristics.; carcinogen call (Species: Rat, Strain/Sex: F344/N / Male (60/Group), Route: Oral (gavage), Dose: 0, 0.3, 1.0, 3.0 mg/kg bw daily for 104 wk, study duration 104 wk, Dose: 0, 0.3, 1.0, 3.0 mg/kg bw daily for 104 wk, study duration 104 wk): inactive; negative

Question: With `C=CCN(CC=C)N=O` as the compound, how does the carcinogen call (Species: RAT, Strain/Sex: BDIX/FEMALE, Route: ORAL, Dose: 0, 20, 40, 80 MG/KG IN DRINKING WATER FOR DURATION OF STUDY (STUDY DURATION: LIFE TIME), Dose: 0, 20, 40, 80 MG/KG IN DRINKING WATER FOR DURATION OF STUDY (STUDY DURATION: LIFE TIME), Tumor Site: Type of Lesion: NASAL/PARANASAL CAVITY: TUMORS) read?
Answer: active; positive

Question: What about the carcinogen call (Species: RAT, Strain/Sex: BDIX/MALE, Route: ORAL, Dose: 0, 20, 40, 80 MG/KG IN DRINKING WATER FOR DURATION OF STUDY (STUDY DURATION: LIFE TIME), Dose: 0, 20, 40, 80 MG/KG IN DRINKING WATER FOR DURATION OF STUDY (STUDY DURATION: LIFE TIME), Tumor Site: Type of Lesion: NASAL/PARANASAL CAVITY: TUMORS) of the same compound?
Answer: active; positive

Question: Which results are given for `O=S(=O)(O)c1ccc(N=Nc2c(O)ccc3cc(S(=O)(=O)O)ccc23)cc1`?
Answer: carcinogen call (Species: MOUSE, Strain/Sex: B6C3F1/FEMALE, Route: ORAL, Dose: 0, 12500, 25000 PPM IN DIET, Dose: 0, 12500, 25000 PPM IN DIET): inactive; negative; carcinogen call (Species: MOUSE, Strain/Sex: B6C3F1/MALE, Route: ORAL, Dose: 0, 12500, 25000 PPM IN DIET, Dose: 0, 12500, 25000 PPM IN DIET): inactive; negative; carcinogen call (Species: MOUSE, Strain/Sex: SWISS-WEBSTER/FEMALE, Route: DERMAL, Dose: 0, 1% IN 0.1 ML DISTILLED WATER 1/WK FOR 19.5 MO (STUDY DURATION: 19.5 MO)): inactive; negative; carcinogen call (Species: MOUSE, Strain/Sex: SWISS-WEBSTER/MALE, Route: DERMAL, Dose: 0, 1% IN 0.1 ML DISTILLED WATER 1/WK FOR 19.5 MO (STUDY DURATION: 19.5 MO)): inactive; negative; carcinogen call (Species: RAT, Strain/Sex: F344/FEMALE, Route: ORAL, Dose: 0, 12500, 25000 PPM IN DIET, Dose: 0, 12500, 25000 PPM IN DIET): inactive; negative; carcinogen call (Species: RAT, Strain/Sex: F344/MALE, Route: ORAL, Dose: 0, 12500, 25000 PPM IN DIET, Dose: 0, 12500, 25000 PPM IN DIET): inactive; negative

Question: `CCNc1nc(Cl)nc(NC(C)C)n1` was tested. Which carcinogen call (Species: RAT, Strain/Sex: F344/FEMALE, Route: ORAL, Dose: 0, 10, 70, 200, 400 PPM IN DIET FOR 24 MO (STUDY DURATION: 24 MO), Dose: 0, 10, 70, 200, 400 PPM IN DIET FOR 24 MO (STUDY DURATION: 24 MO)) did it give?
Answer: inactive; negative

Question: What about the carcinogen call (Species: RAT, Strain/Sex: F344/LATI/FEMALE, Route: ORAL, Dose: 0, 500, 1000 PPM TECHNICAL GRADE IN FEED FOR 8 WK THEN 0, 375, 750 PPM FOR LIFE SPAN (STUDY DURATION: LIFE SPAN), Dose: 0, 500, 1000 PPM TECHNICAL GRADE IN FEED FOR 8 WK THEN 0, 375, 750 PPM FOR LIFE SPAN (STUDY DURATION: LIFE SPAN), Tumor Site: Type of Lesion: UTERUS: ADENOCARCINOMA, HEMATOPOIETIC SYSTEM: LEUKEMIA OR LYMPHOMA) of the same compound?
Answer: active; positive

Question: What about the carcinogen call (Species: RAT, Strain/Sex: F344/LATI/MALE, Route: ORAL, Dose: 0, 500, 1000 PPM TECHNICAL GRADE IN FEED FOR 8 WK THEN 0, 375, 750 PPM FOR LIFE SPAN (STUDY DURATION: LIFE SPAN), Dose: 0, 500, 1000 PPM TECHNICAL GRADE IN FEED FOR 8 WK THEN 0, 375, 750 PPM FOR LIFE SPAN (STUDY DURATION: LIFE SPAN), Tumor Site: Type of Lesion: MAMMARY GLAND: BENIGN TUMOR) of the same compound?
Answer: active; positive

Question: What about the carcinogen call (Species: RAT, Strain/Sex: SPRAGUE-DAWLEY/FEMALE, Route: ORAL, Dose: 0, 70, 400 PPM IN DIET FOR 24 MO (STUDY DURATION: 24 MO), Dose: 0, 70, 400 PPM IN DIET FOR 24 MO (STUDY DURATION: 24 MO)) of the same compound?
Answer: inactive; negative

Question: With `Cc1ccc2c(c1)[C@H](Nc1nc(N)nc(C(C)F)n1)[C@@H](C)C2` (stereo not given in full) as the compound, how does the carcinogen call (Species: Mouse, Strain/Sex: C57BL/6J/Female (50/Group), Route: Oral, Dose: 0, 8.4, 42, 168 mg/kg/day of 93.14% indaziflam in diet for 18 mo, study duration 18 mo, Dose: 0, 8.4, 42, 168 mg/kg/day of 93.14% indaziflam in diet for 18 mo, study duration 18 mo) read?
Answer: inactive; negative

Question: And the carcinogen call (Species: Mouse, Strain/Sex: C57BL/6J/Male (50/Group), Route: Oral, Dose: 0, 6.8, 34, 142 mg/kg/day of 93.14% indaziflam in diet for 18 mo, study duration 18 mo, Dose: 0, 6.8, 34, 142 mg/kg/day of 93.14% indaziflam in diet for 18 mo, study duration 18 mo)?
Answer: inactive; negative

Question: And the carcinogen call (Species: Rat, Strain/Sex: Wistar/Female (60/Group), Route: Oral, Dose: 0, 17, 167, 661 (wks 0-40), 452 (overall) mg/kg/day of 93.14% indaziflam in diet for 2 yr, study duration 2 yr, Dose: 0, 17, 167, 661 (wks 0-40), 452 (overall) mg/kg/day of 93.14% indaziflam in diet for 2 yr, study duration 2 yr)?
Answer: inactive; negative

Question: And the carcinogen call (Species: Rat, Strain/Sex: Wistar/Male (60/Group), Route: Oral, Dose: 0, 12, 118, 414 mg/kg/day of 93.14% indaziflam in diet for 2 yr, study duration 2 yr, Dose: 0, 12, 118, 414 mg/kg/day of 93.14% indaziflam in diet for 2 yr, study duration 2 yr)?
Answer: inactive; negative

Question: Which carcinogen call (Species: HAMSTER, Route: INTRAPERITONEAL, INTRAVENOUS, Tumor Site: Type of Lesion: LIVER) does the source give for `CN(N=O)C(=O)N[C@@H](C=O)[C@@H](O)[C@H](O)[C@H](O)CO` here?
Answer: active; positive

Question: What about the carcinogen call (Species: MOUSE, Route: INTRAPERITONEAL, Tumor Site: Type of Lesion: KIDNEY, LUNG, UTERUS, Tumor Site: Type of Lesion: KIDNEY, LUNG, UTERUS) of the same compound?
Answer: active; positive

Question: What about the carcinogen call (Species: RAT, Route: INTRAPERITONEAL, Tumor Site: Type of Lesion: KIDNEY, LIVER) of the same compound?
Answer: active; positive

Question: What about the carcinogen call (Species: RAT, Route: INTRAVENOUS, Tumor Site: Type of Lesion: KIDNEY) of the same compound?
Answer: active; positive

Question: And the carcinogen call (Species: RAT, Strain/Sex: SHR/MALE, Route: INTRAPERITONEAL, Dose: 0, 37.5, 50, 62.5, 75 MG/KG INJECTED ONCE (STUDY DURATION: 12 MO), Dose: 0, 37.5, 50, 62.5, 75 MG/KG INJECTED ONCE (STUDY DURATION: 12 MO), Tumor Site: Type of Lesion: LIVER: HEPATOMA, KIDNEY: NEPHROBLASTOMA, PANCREATIC ISLETS: TUMOR, Tumor Site: Type of Lesion: LIVER: HEPATOMA, KIDNEY: NEPHROBLASTOMA, PANCREATIC ISLETS: TUMOR)?
Answer: active; positive

Question: What about the carcinogen call (Species: RAT, Strain/Sex: WISTAR/MALE, Route: INTRAPERITONEAL, Dose: 0, 100, 125, 137.5, 150 MG/KG INJECTED ONCE (STUDY DURATION: 12 M0), Dose: 0, 100, 125, 137.5, 150 MG/KG INJECTED ONCE (STUDY DURATION: 12 M0), Tumor Site: Type of Lesion: LIVER: HEPATOMA, KIDNEY: NEPHROBLASTOMA) of the same compound?
Answer: active; positive
